How the values were obtained:
Assay in all cases: KINOMEscan competition binding
Conditions in all cases: compound 10.0 µM
TAOK1 (human) = TAOK1 (human) (UniProt Q7L7X3)
[1] = target: JAK1 JH1 catalytic (human) (UniProt P23458)
TNIK (human) = TNIK (human) (UniProt Q9UKE5)
PRKX (human) = PRKX (human) (UniProt P51817)
EPHA5 (human) = EPHA5 (human) (UniProt P54756)
PIP4K2B (human) = PIP4K2B (human) (UniProt P78356)
AXL (human) = AXL (human) (UniProt P30530)
SIK2 (human) = SIK2 (human) (UniProt Q9H0K1)
MAP2K2 (human) = MAP2K2 (human) (UniProt P36507)
GSK3A (human) = GSK3A (human) (UniProt P49840)
MAP3K12 (human) = MAP3K12 (human) (UniProt Q12852)
MST1R (human) = MST1R (human) (UniProt Q04912)
CDK9 (human) = CDK9 (human) (UniProt P50750)
PAK1 (human) = PAK1 (human) (UniProt Q13153)
CSNK1G1 (human) = CSNK1G1 (human) (UniProt Q9HCP0)
PIK3C2B (human) = PIK3C2B (human) (UniProt O00750)
RPS6KA2 KD2 (human) = RPS6KA2 KD2 (human) (UniProt Q15349)
MAP4K5 (human) = MAP4K5 (human) (UniProt Q9Y4K4)
LYN (human) = LYN (human) (UniProt P07948)
LATS1 (human) = LATS1 (human) (UniProt O95835)
AAK1 (human) = AAK1 (human) (UniProt Q2M2I8)
TNNI3K (human) = TNNI3K (human) (UniProt Q59H18)
RPS6KA3 KD1 (human) = RPS6KA3 KD1 (human) (UniProt P51812)
SRPK3 (human) = SRPK3 (human) (UniProt Q9UPE1)
MAP3K4 (human) = MAP3K4 (human) (UniProt Q9Y6R4)
NUAK1 (human) = NUAK1 (human) (UniProt O60285)
FGFR4 (human) = FGFR4 (human) (UniProt P22455)
CAMK1G (human) = CAMK1G (human) (UniProt Q96NX5)
CSNK1A1L (human) = CSNK1A1L (human) (UniProt Q8N752)
ABL2 (human) = ABL2 (human) (UniProt P42684)
RET (human) = RET (human) (UniProt P07949)
PRKACA (human) = PRKACA (human) (UniProt P17612)
MAP3K3 (human) = MAP3K3 (human) (UniProt Q99759)
MAPK11 (human) = MAPK11 (human) (UniProt Q15759)
CDC2L2 (human) = CDC2L2 (human) (UniProt Q9UQ88)
MAPK8 (human) = MAPK8 (human) (UniProt P45983)
[2] = tested on: FLT3 (human), P36888 [N841I]
STK32B (human) = STK32B (human) (UniProt Q9NY57)
ACVR1 (human) = ACVR1 (human) (UniProt Q04771)
YES1 (human) = YES1 (human) (UniProt P07947)

Sequence of PRKX (human) (P51817 whole entry, looked up): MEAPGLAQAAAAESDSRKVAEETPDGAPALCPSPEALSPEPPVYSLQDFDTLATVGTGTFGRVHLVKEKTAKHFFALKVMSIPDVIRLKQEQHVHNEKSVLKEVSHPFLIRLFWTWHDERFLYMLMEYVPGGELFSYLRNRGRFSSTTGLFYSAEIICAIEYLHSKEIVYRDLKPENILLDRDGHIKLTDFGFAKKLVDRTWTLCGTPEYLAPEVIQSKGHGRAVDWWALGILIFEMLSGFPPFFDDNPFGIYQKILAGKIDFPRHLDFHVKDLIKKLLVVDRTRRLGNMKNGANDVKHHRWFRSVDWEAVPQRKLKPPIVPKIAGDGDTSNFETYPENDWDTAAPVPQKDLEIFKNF
Sequence of RPS6KA2 KD2 (human) (Q15349 whole entry, looked up): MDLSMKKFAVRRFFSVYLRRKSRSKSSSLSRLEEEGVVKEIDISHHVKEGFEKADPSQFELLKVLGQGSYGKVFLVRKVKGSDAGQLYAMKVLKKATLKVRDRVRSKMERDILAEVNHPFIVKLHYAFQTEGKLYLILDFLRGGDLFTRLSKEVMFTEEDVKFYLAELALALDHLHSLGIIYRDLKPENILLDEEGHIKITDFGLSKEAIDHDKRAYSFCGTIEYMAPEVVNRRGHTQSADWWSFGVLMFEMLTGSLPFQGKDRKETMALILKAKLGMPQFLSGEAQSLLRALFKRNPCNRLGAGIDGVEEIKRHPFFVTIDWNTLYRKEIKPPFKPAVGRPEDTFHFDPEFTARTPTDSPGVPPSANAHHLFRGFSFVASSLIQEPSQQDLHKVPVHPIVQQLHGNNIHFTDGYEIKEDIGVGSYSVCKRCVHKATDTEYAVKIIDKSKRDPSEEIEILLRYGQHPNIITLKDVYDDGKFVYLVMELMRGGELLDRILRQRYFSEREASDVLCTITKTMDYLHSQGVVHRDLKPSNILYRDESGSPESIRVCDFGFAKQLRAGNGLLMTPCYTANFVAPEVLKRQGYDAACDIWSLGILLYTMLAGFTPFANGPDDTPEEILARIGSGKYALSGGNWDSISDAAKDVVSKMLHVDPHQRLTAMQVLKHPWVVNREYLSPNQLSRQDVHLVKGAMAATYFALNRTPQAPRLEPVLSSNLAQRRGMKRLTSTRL
Sequence of AXL (human) (P30530 whole entry, looked up): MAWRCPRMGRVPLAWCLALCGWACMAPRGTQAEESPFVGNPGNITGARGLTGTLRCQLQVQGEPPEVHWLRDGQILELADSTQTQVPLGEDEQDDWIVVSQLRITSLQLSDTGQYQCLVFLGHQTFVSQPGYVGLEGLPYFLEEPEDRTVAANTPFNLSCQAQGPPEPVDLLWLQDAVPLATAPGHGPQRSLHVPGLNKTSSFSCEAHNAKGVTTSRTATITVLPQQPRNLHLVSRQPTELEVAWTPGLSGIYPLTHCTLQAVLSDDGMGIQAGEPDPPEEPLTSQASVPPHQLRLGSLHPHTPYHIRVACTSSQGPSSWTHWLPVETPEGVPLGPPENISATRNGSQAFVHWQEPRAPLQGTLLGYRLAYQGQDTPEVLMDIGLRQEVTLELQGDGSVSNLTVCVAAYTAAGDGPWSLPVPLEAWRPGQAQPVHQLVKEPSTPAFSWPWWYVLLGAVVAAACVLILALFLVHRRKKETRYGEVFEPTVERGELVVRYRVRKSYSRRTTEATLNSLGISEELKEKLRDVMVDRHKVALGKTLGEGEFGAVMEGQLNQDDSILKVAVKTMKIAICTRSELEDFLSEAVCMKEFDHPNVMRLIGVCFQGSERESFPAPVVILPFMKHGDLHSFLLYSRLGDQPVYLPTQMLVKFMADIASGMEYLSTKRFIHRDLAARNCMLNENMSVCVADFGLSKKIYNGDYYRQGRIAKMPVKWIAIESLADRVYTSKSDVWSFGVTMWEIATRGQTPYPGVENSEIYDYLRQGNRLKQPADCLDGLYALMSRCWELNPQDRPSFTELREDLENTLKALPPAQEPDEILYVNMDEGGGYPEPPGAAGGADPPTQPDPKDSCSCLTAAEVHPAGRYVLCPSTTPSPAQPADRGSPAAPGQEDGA
Sequence of CDK9 (human) (P50750 whole entry, looked up): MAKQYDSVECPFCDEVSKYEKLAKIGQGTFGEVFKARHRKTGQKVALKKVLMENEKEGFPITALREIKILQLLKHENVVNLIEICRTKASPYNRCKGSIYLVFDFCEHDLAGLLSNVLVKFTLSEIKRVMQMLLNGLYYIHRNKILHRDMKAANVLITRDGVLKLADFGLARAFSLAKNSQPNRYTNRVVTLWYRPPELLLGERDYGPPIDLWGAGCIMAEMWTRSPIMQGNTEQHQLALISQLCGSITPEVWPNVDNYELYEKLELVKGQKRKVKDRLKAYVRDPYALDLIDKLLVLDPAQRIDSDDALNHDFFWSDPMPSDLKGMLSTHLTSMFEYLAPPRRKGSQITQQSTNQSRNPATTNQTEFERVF
Sequence of CSNK1A1L (human) (Q8N752 whole entry, looked up): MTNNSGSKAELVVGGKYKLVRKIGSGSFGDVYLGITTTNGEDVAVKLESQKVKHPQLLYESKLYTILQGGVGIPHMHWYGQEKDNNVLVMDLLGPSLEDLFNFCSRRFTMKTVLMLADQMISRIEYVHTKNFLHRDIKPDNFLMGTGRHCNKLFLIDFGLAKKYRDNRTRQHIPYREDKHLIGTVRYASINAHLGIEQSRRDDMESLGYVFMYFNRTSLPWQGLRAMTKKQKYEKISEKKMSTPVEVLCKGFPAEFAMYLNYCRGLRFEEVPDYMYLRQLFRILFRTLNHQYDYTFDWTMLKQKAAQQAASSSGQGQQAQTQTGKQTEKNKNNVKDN
Sequence of PIP4K2B (human) (P78356 whole entry, looked up): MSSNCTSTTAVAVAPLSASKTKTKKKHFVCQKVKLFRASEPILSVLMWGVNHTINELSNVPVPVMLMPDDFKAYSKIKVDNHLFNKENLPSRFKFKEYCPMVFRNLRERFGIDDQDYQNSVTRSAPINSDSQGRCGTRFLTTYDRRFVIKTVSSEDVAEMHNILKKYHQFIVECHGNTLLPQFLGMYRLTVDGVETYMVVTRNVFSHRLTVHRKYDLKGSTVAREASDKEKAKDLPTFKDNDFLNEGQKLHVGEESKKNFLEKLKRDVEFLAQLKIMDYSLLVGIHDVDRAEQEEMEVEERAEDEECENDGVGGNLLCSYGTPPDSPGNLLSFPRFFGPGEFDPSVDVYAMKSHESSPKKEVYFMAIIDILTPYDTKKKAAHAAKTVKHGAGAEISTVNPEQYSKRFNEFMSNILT
Sequence of MAP3K3 (human) (Q99759 whole entry, looked up): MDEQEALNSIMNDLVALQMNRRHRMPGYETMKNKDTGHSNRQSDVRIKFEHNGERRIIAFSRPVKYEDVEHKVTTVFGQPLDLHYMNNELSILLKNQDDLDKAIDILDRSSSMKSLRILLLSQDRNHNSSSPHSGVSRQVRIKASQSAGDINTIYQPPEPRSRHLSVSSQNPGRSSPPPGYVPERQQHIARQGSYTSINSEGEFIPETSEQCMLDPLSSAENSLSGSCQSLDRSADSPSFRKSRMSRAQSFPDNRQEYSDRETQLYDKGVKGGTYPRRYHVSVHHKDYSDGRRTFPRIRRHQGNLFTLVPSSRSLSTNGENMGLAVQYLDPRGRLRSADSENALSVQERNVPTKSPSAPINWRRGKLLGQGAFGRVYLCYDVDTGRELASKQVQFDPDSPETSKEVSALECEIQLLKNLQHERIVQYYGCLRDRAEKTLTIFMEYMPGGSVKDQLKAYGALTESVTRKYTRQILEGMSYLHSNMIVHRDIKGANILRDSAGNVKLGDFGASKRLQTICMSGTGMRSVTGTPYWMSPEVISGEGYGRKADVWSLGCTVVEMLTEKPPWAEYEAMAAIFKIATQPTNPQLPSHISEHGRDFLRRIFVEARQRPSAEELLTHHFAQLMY
Sequence of MAPK11 (human) (Q15759 whole entry, looked up): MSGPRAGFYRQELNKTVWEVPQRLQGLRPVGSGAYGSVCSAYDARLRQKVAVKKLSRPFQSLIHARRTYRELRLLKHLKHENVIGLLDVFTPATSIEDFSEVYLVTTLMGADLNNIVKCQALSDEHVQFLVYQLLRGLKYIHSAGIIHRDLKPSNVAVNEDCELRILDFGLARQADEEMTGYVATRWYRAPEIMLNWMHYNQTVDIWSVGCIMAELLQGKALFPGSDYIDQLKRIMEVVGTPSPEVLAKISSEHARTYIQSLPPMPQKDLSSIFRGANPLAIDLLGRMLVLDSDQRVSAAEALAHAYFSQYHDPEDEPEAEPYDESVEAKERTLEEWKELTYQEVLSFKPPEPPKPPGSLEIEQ
Sequence of CSNK1G1 (human) (Q9HCP0 whole entry, looked up): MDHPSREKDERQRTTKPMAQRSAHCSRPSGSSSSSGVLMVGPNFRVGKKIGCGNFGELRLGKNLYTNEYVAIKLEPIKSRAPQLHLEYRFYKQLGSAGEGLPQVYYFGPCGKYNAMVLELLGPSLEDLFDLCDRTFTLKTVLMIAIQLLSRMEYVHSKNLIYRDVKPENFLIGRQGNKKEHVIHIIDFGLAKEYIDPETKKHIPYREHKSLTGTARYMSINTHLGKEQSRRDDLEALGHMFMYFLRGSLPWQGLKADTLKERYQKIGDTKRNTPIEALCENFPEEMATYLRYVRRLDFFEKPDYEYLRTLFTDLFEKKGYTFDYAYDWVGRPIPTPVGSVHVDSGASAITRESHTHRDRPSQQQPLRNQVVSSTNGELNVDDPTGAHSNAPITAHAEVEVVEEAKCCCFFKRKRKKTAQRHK
Sequence of MAP2K2 (human) (P36507 whole entry, looked up): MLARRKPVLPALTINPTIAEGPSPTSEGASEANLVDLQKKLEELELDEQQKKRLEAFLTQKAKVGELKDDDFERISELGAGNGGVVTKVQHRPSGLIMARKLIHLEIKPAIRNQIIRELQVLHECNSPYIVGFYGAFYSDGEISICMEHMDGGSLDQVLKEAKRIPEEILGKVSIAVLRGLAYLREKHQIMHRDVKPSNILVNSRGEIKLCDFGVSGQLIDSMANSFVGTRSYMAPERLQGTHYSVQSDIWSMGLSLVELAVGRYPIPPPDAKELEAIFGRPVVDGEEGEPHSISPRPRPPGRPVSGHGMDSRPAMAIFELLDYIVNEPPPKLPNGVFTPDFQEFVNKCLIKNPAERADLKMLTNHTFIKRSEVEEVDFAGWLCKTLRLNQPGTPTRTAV

SMILES	kinase still bound, per cent of control (TAOK1 (human))	kinase still bound, per cent of control [1]	kinase still bound, per cent of control (TNIK (human))	kinase still bound, per cent of control (PRKX (human))	kinase still bound, per cent of control (EPHA5 (human))	kinase still bound, per cent of control (PIP4K2B (human))	kinase still bound, per cent of control (AXL (human))	kinase still bound, per cent of control (SIK2 (human))	kinase still bound, per cent of control (MAP2K2 (human))	kinase still bound, per cent of control (GSK3A (human))	kinase still bound, per cent of control (MAP3K12 (human))	kinase still bound, per cent of control (MST1R (human))	kinase still bound, per cent of control (CDK9 (human))	kinase still bound, per cent of control (PAK1 (human))	kinase still bound, per cent of control (CSNK1G1 (human))	kinase still bound, per cent of control (PIK3C2B (human))	kinase still bound, per cent of control (RPS6KA2 KD2 (human))	kinase still bound, per cent of control (MAP4K5 (human))	kinase still bound, per cent of control (LYN (human))	kinase still bound, per cent of control (LATS1 (human))	other results
Cc1ccc2nc(NCCN)c3ncc(C)n3c2c1	66%	100%	100%	86%	100%	100%	100%	82%	77%	100%	84%	100%	35%	100%	94%	100%	97%	96%	100%	100%	kinase still bound, per cent of control (AAK1 (human)): 78%; kinase still bound, per cent of control (TNNI3K (human)): 100%; kinase still bound, per cent of control (RPS6KA3 KD1 (human)): 100%; kinase still bound, per cent of control (SRPK3 (human)): 100%; kinase still bound, per cent of control (MAP3K4 (human)): 100%; kinase still bound, per cent of control (NUAK1 (human)): 88%; kinase still bound, per cent of control (FGFR4 (human)): 100%; kinase still bound, per cent of control (CAMK1G (human)): 88%; kinase still bound, per cent of control (CSNK1A1L (human)): 100%; kinase still bound, per cent of control (ABL2 (human)): 100%; kinase still bound, per cent of control (RET (human)): 100%; kinase still bound, per cent of control (PRKACA (human)): 100%; kinase still bound, per cent of control (MAP3K3 (human)): 100%; kinase still bound, per cent of control (MAPK11 (human)): 87%; kinase still bound, per cent of control (CDC2L2 (human)): 1%; kinase still bound, per cent of control (MAPK8 (human)): 66%; kinase still bound, per cent of control [2]: 41%; kinase still bound, per cent of control (STK32B (human)): 100%; kinase still bound, per cent of control (ACVR1 (human)): 100%; kinase still bound, per cent of control (YES1 (human)): 100%
C=CC(=O)Nc1cc(NC(=O)c2ccc(C)c(NC(=O)c3ccno3)c2)cc(C(F)(F)F)c1	76%	100%	100%	84%	80%	100%	100%	100%	93%	100%	100%	99%	100%	79%	100%	100%	100%	100%	34%	100%	kinase still bound, per cent of control (AAK1 (human)): 77%; kinase still bound, per cent of control (TNNI3K (human)): 54%; kinase still bound, per cent of control (RPS6KA3 KD1 (human)): 96%; kinase still bound, per cent of control (SRPK3 (human)): 100%; kinase still bound, per cent of control (MAP3K4 (human)): 100%; kinase still bound, per cent of control (NUAK1 (human)): 100%; kinase still bound, per cent of control (FGFR4 (human)): 100%; kinase still bound, per cent of control (CAMK1G (human)): 91%; kinase still bound, per cent of control (CSNK1A1L (human)): 90%; kinase still bound, per cent of control (ABL2 (human)): 32%; kinase still bound, per cent of control (RET (human)): 96%; kinase still bound, per cent of control (PRKACA (human)): 100%; kinase still bound, per cent of control (MAP3K3 (human)): 96%; kinase still bound, per cent of control (MAPK11 (human)): 4.8%; kinase still bound, per cent of control (CDC2L2 (human)): 94%; kinase still bound, per cent of control (MAPK8 (human)): 100%; kinase still bound, per cent of control [2]: 82%; kinase still bound, per cent of control (STK32B (human)): 100%; kinase still bound, per cent of control (ACVR1 (human)): 84%; kinase still bound, per cent of control (YES1 (human)): 46%
